Source: patent US20260355164A1, “USE OF JUN INHIBITOR IN PREPARING MEDICAMENT FOR TREATING HEART FAILURE WITH PRESERVED EJECTION FRACTION” (Fuwai Hospital, Chinese Academy of Medical Sciences and …, priority 2022, published 2026)
Entries after “also recorded” stand apart in the source; their conditions may differ.

Assays:
Type in all cases: in vivo, mouse (C57BL/6N)
[1] = Changes in body weight / obesity of HFpEF model mice with different treatments; details: HFD+L-NAME mice treated with T-5224 (total dose 250 mg/kg); FIG. 3C
Description: (§1) Male C57BL/6N wild-type mice aged 8 to 10 weeks were divided into three groups, namely, normal group (normal diet and drinking water), model control group (high-fat diet combined with administration of N-nitro-L-arginine methyl ester) and model treatment group (high-fat diet combined with administration of N-nitro-L-arginine methyl ester and treatment with T-5224). Among them, the model control group and the model treatment group were modeled by the following literature: Gabriele G. Schiattarella et al., Nitrosative stress drives heart failure with preserved ejection fraction, https://doi.org/10.1038/s41586-019-1100-z. Specifically, heart failure with preserved ejection fraction was induced by a high-fat diet (HFD) (60% kcal, from fat (lard)) and N-nitro-L-arginine methyl ester (abbreviated as L-NAME, 0.5 g/L in drinking water) to obtain the HFpEF animal model.
After the animal model was obtained, that was, from the 5′ week of inducing the HFpEF model, the model treatment group was treated with T-5224, the model control group was treated with a solvent without drug, and the mice with normal diet and drinking water during the whole induction process were used as negative control. The mice were administrated with drugs when they were raised for 5 weeks. For the treatment group, T-5224 was administered at 250 mg/kg according to the body weight of mice. […]

[2] = tested on: Jun; assay: Quantitative PCR detection of Jun expression in cardiomyocytes of HFpEF model mice; details: HFD+L-NAME mice treated with T-5224, compared with the model control group; qPCR, b-Actin standardized; FIG. 3D
Description: as §1, with “Specifically, heart failure with preserved ejection fraction was induced by a high-fat diet (HFD) (60% kcal, from fat (lard)) and N-nitro-L-arginine methyl ester (abbreviated as L-NAME, 0.5 g/L in drinking water) to obtain the HFpEF animal model.” left out
In the 15th week of model induction, the cardiomyocytes of normal group and the model control group were isolated by perfusion method, and quantitative RCR detection was performed. […]
Total RNA was extracted from cells using GeneJet RNA purification kit (Thermo Scientific, K0732), and […] of total RNA was reverse transcribed using iScript TM cDNA synthesis kit (Bio-Rad, 1708890) to generate cDNA. qPCR was performed using iTaqUniversl SYBR Green supermix (1725121, Bio-Rad) on ABI Vii7 real-time system (Life Technologies, Q6), and b-Actin was used for standardized quantitative analysis. […]

[3] = tested on: mouse HFpEF model; assay: Echocardiography and Doppler imaging (systolic and diastolic function) in HFpEF model mice (HFD+L-NAME); details: male mice
Description: as §1, with “model. […]” for “model.”
All the mice were raised under different conditions for five weeks and then began to undergo conventional echocardiography and Doppler imaging, which was performed every two weeks until the end of the 15th week. […] All parameters were measured at least 3 times, and the mean values were provided. […]

Structure (SMILES): O=C(O)CCc1cc(C(=O)c2ccc(OC3CCCC3)cc2O)ccc1OCc1ccc2c(O)noc2c1 [T-5224]
- mouse obesity (changes in body weight) [1]: improved
- expression of Jun in cardiomyocytes [2]: down-regulated compared with the model control group
- diastolic function (E/E′) ([3]; HFD+0.5 g/L L-NAME, T-5224 0.8 mg in 200 μL 1% PVP every other day, 5th to 13th week, total dose 250 mg/kg, followed to 15th week, FIG. 3B): significantly improved and could be maintained until the 15th week
- occurrence and development of HFpEF ([3]; HFD+L-NAME, cardiac function detection after T-5224 administration (from 5th week, total dose 250 mg/kg), FIG. 3A-B, 250 mg/kg): effectively alleviate the occurrence and development of HFpEF; also recorded: well suppressed
